Assay results published in patent publication US10597405B2, “Chemical compounds” (ASTRAZENECA AB, priority 2017, dated 2020).

molecular target: T1, KRasG12C (Homo sapiens, UniProt P01116, G12C); experiment: KRasG12C functional assay (HTRF nucleotide exchange / Raf RBD binding); format: biochemical; conditions: GDP loaded biotinylated KRasG12C, samples incubated 4 hrs, FRET readout; single experiment or average of two or more
T1 construct: biotin (biotinylated); made in house
Description: KRasG12C Functional Assay
All enzyme and substrate solutions were prepared in assay buffer containing 20 mM HEPES (pH 7.5), 5 mM MgCl2, 150 mM NaCl, and 0.01% Tween 20. […] In a separate mix 20 nM GST-Raf Ras binding domain (GST-Raf RBD, purified in house) and 4 μg/ml anti-GST XL665 antibody (Cisbio) was prepared in assay buffer containing 50 mM Potassium Fluoride and 0.05 mg/ml BSA and equilibrated for 4 hours before adding 0.6 μM Guanosine 5′-[γ-thio]triphosphate (GTPγS, Sigma) and 0.08 μM SOS (purified in house). 5 μl of the GST-RAF RBD mix was then dispensed into each well of the assay plate. […] This is detected simultaneously via the specific binding interaction between active GTPγS KRas^G12C with GST-Raf RBD which brings the europium and XL665 into close proximity enabling an increased FRET signal to be detected on a Pherastar (BMG) plate reader equipped with the HTRF filter module. […] IC50 values were calculated from normalised dose-response response FRET data curve fitted in Genedata screener (Basel, Switzerland).

T1 sequence (P01116 1-188 isoform P01116-2 G12C): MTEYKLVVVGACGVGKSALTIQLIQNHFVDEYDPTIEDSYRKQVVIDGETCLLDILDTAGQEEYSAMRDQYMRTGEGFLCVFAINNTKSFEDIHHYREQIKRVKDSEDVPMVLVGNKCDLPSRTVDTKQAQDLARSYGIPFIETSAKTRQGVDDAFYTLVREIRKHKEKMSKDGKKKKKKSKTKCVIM

Structure (SMILES)	IC50
C=CC(=O)N1CCN2c3c(cnc4c(OC)c(-c5c(O)cccc5F)c(Cl)cc34)OC[C@H]2C1 (single isomer, unassigned) [Compound 23]	4.2 µM
C=CC(=O)N1CCN2c3c(cnc4c(F)c(-c5c(C)ccc6[nH]cnc56)c(Cl)cc34)N(C)C(=O)[C@H]2C1 (single isomer, unassigned) [Compound 25]	0.028 µM
C=CC(=O)N1CCN2c3c(cnc4cc(-c5c(O)cccc5F)c(Cl)cc34)N(C)C(=O)C2(C)C1 (single isomer, unassigned) [Compound 32, 11-Chloro-10-(2-fluoro-6-hydroxyphenyl)-4a,6-dimethyl-3-(prop-2-enoyl)-2,3,4,4a-tetrahydro-1H-pyrazino[1′,2′:4,5]pyrazino[2,3-c]quinolin-5(6H)-one]	2.2 µM
C[C@@H]1CN2c3c(cnc4c(F)c(-c5c(O)cccc5F)c(Cl)cc34)OC[C@H]2CN1C(=O)/C=C/CN(C)C (single isomer, unassigned) [Compound 36]	28.1 µM
C=CC(=O)N1CCN2c3c(cnc4c(C)c(-c5c(O)cccc5F)c(C)cc34)N(C)C(=O)[C@H]2C1 (single isomer, unassigned) [Compound 44]	0.142 µM
C=CC(=O)N1CCN2c3c(cnc4c(F)c(-c5c(C)ccc6[nH]c(=O)oc56)c(Cl)cc34)OC[C@H]2C1 (single isomer, unassigned) [Compound 47]	0.031 µM
C=CC(=O)N1CCN2c3c(cnc4c(F)c(-c5c(O)cccc5Cl)c(Cl)cc34)N(C)C(=O)[C@H]2C1 (single isomer, unassigned) [Compound 52]	0.014 µM
C=CC(=O)N1CCN2c3c(cnc4c(F)c(-c5c(O)ccc6ccccc56)c(Cl)cc34)N(C)C(=O)[C@H]2C1 (single isomer, unassigned) [Compound 55]	5.9 µM
C=CC(=O)N1CCN2c3c(cnc4c(F)c(-c5c(O)ccc6ccccc56)c(Cl)cc34)N(C)C(=O)[C@H]2C1 (single isomer, unassigned) [Compound 56]	0.056 µM
C=CC(=O)N1CCN2c3c(cnc4c(F)c(-c5c(O)ccc(F)c5F)c(Cl)cc34)N(C)C(=O)[C@H]2C1 (single isomer, unassigned) [Compound 57]	8.9 µM
C=CC(=O)N1CCN2c3c(cnc4c(F)c(-c5c(O)ccc(F)c5F)c(Cl)cc34)N(C)C(=O)[C@H]2C1 (single isomer, unassigned) [Compound 58]	0.02 µM
C=CC(=O)N1CCN2c3c(cnc4c(F)c(-c5c(O)cccc5C(F)F)c(Cl)cc34)N(C)C(=O)[C@H]2C1 (single isomer, unassigned) [Compound 61]	38.7 µM
C=CC(=O)N1C[C@@H]2COc3cnc4c(F)c(-c5c(O)cccc5F)c(F)cc4c3N2C[C@H]1C (single isomer, unassigned) [Compound 63]	1.9 µM
C=CC(=O)N1C[C@@H]2COc3cnc4c(F)c(-c5c(O)cccc5F)c(F)cc4c3N2C[C@H]1C (single isomer, unassigned) [Compound 64]	0.02 µM
C=CC(=O)N1CCN2c3c(cnc4cc(-c5c(C)ccc6[nH]c(=O)[nH]c56)c(Cl)cc34)OC[C@H]2C1 (single isomer, unassigned) [Compound 72]	8.3 µM
C=CC(=O)N1CCN2c3c(cnc4cc(-c5c(C)ccc6[nH]ncc56)c(Cl)cc34)N(CCN(C)C)C[C@H]2C1 (single isomer, unassigned) [Compound 74]	13.1 µM

More lines, now with the values ahead:

IC50	Structure (SMILES)
0.446 µM	C=CC(=O)N1CCN2c3c(cnc4c(F)c(-c5c(C)ccc6[nH]cnc56)c(Cl)cc34)N(C)C(=O)[C@H]2C1 (single isomer, unassigned) [Compound 26]
8.8 µM	C=CC(=O)N1C[C@@H]2C(=O)N(C)c3cnc4c(F)c(-c5c(C)ccc6[nH]cnc56)c(Cl)cc4c3N2C[C@H]1C (single isomer, unassigned) [Compound 27]
0.003 µM	C=CC(=O)N1C[C@@H]2C(=O)N(C)c3cnc4c(F)c(-c5c(C)ccc6[nH]cnc56)c(Cl)cc4c3N2C[C@H]1C (single isomer, unassigned) [Compound 28]
0.025 µM	C[C@@H]1CN2c3c(cnc4c(F)c(-c5c(O)cccc5F)c(Cl)cc34)N(C)C(=O)[C@H]2CN1C(=O)/C=C/CN(C)C (single isomer, unassigned) [Compound 29]
4.6 µM	C=CC(=O)N1C[C@@H]2C(=O)Nc3cnc4c(F)c(-c5c(O)cccc5F)c(Cl)cc4c3N2C[C@H]1C (single isomer, unassigned) [Compound 30]
0.004 µM	C=CC(=O)N1C[C@@H]2C(=O)Nc3cnc4c(F)c(-c5c(O)cccc5F)c(Cl)cc4c3N2C[C@H]1C (single isomer, unassigned) [Compound 31]
9.8 µM	C=CC(=O)N1CCN2c3c(cnc4c(F)c(-c5c(F)cccc5CO)c(Cl)cc34)N(C)C(=O)[C@H]2C1 (single isomer, unassigned) [Compound 34]
0.133 µM	C=CC(=O)N1CCN2c3c(cnc4c(F)c(-c5c(F)cccc5CO)c(Cl)cc34)N(C)C(=O)[C@H]2C1 (single isomer, unassigned) [Compound 35]
0.021 µM	C[C@@H]1CN2c3c(cnc4c(F)c(-c5c(O)cccc5F)c(Cl)cc34)OC[C@H]2CN1C(=O)/C=C/CN(C)C (single isomer, unassigned) [Compound 37]
1.5 µM	C=CC(=O)N1C[C@@H]2COc3cnc4c(C)c(-c5c(O)cccc5F)c(Cl)cc4c3N2C[C@H]1C (single isomer, unassigned) [Compound 41]
> 100 µM	C=CC(=O)N1CCN2c3c(cnc4c(C)c(-c5c(O)cccc5F)c(C)cc34)N(C)C(=O)[C@H]2C1 (single isomer, unassigned) [Compound 43]
1.1 µM	C=CC(=O)N1CCN2c3c(cnc4cc(-c5c(F)ccc6cc[nH]c(=O)c56)c(Cl)cc34)OC[C@H]2C1 (single isomer, unassigned) [Compound 46]
3.6 µM	C=CC(=O)N1CCN2c3c(cnc4c(F)c(-c5c(C)ccc6[nH]c(=O)oc56)c(Cl)cc34)OC[C@H]2C1 (single isomer, unassigned) [Compound 48]
9.6 µM	C=CC(=O)N1CCN2c3c(cnc4c(F)c(-c5c(C)ccc6[nH]ncc56)c(Cl)cc34)N(C)C(=O)[C@H]2C1 (single isomer, unassigned) [Compound 50]
> 100 µM	C=CC(=O)N1CCN2c3c(cnc4c(F)c(-c5c(O)cccc5Cl)c(Cl)cc34)N(C)C(=O)[C@H]2C1 (single isomer, unassigned) [Compound 51]
37.6 µM	C=CC(=O)N1CCN2c3c(cnc4c(F)c(-c5c(C)cccc5O)c(Cl)cc34)N(C)C(=O)[C@H]2C1 (single isomer, unassigned) [Compound 53]
0.04 µM	C=CC(=O)N1CCN2c3c(cnc4c(F)c(-c5c(C)cccc5O)c(Cl)cc34)N(C)C(=O)[C@H]2C1 (single isomer, unassigned) [Compound 54]
0.037 µM	C=CC(=O)N1CCN2c3c(cnc4c(F)c(-c5c(O)cccc5C(F)F)c(Cl)cc34)N(C)C(=O)[C@H]2C1 (single isomer, unassigned) [Compound 62]
0.057 µM	C=CC(=O)N1CCN2c3c(cnc4cc(-c5c(C)ccc6[nH]ncc56)c(Cl)cc34)N(CCN(C)C)C[C@H]2C1 (single isomer, unassigned) [Compound 73]
0.931 µM	C#Cc1cc2c3c(cnc2cc1-c1c(C)ccc2[nH]ncc12)OC[C@H]1CN(C(=O)C=C)CCN31 (single isomer, unassigned) [Compound 76]
